Laboratory results as given in US20210386367A1, “DEVICES AND SYSTEMS FOR GASTROINTESTINAL MICROBIOME DETECTION AND MANIPULATION” (Progenity, Inc., priority 2018, published 2021).
≈ marks a conversion by molar mass, not a printed value.

Legend:
[1] = tested on: Streptococcus spp. spontaneous mutants; assay: organism not typed; type: cell-based
Description: (§1) Select isolates were subcultured onto agar containing drug at the selection concentration, were identified by MALDI, and were frozen for broth microdilution MIC testing as described below.
(§2) To determine whether colonies growing on drug selection plates had elevated MIC values to the selecting antibiotic, susceptibility testing by broth microdilution was conducted on isolated mutants following methodology recommended by CLSI (1), (2), and (3) “Performance Standards for Antimicrobial Susceptibility Testing; Twenty-Eighth Informational Supplement.,” CLSI document M100-S28, 2018.
(§3) All wells in columns 2 through 12 of a standard 96-well microdilution plate (Costar 3795) were filled with 150 μL of the appropriate diluent. Then, 300 μL of the test agents were added to the wells of column 1 of the plates at […] the highest final concentration to be tested. Serial two-fold dilutions were made across the rows through column 11 using the Biomek 2000. The wells of column 12 contained no drug and served as the growth control wells. This plate served as the “mother plate” from which selected MIC assay plates or “daughter plates” were made.
(§4) 2 μL of drug solution from each well of a mother plate was added to each corresponding well of the daughter plate in a single step. A standardized inoculum of each aerobic test organism was prepared per CLSI methods to equal a 0.5 McFarland standard, followed by a dilution of 1:20 in MHB II. The plates were then inoculated with 10 μL of the diluted inoculum using the Biomek 2000 from low to high drug concentration, resulting in a final concentration of approximately 5×10^5 CFU/mL. An un-inoculated plate was incubated for the purpose of assessing solubility of the drug in the test media.
(§5) The plates for the aerobic tests were stacked 3-4 high, covered with a sterile lid on the top plate, and incubated aerobically at 35° C. for 18-20 hr. The MIC was recorded as the lowest concentration of drug that inhibited visible growth of the organism.

[2] = tested on: Streptococcus spp. spontaneous mutants; settings: S. pneumoniae ATCC 49619; CLSI QC range shown in parentheses; cited from earlier work
[3] = tested on: E. coli spontaneous mutants; assay: Broth microdilution MIC of spontaneous mutants; type: cell-based, Escherichia coli
Description: as §1, §2, §3, §4, §5

[4] = tested on: E. coli spontaneous mutants; settings: E. coli ATCC 25922; CLSI QC range shown in parentheses; cited from earlier work

`CN(C)[C@@H]1C(O)=C(C(N)=O)C(=O)[C@@]2(O)C(O)=C3C(=O)c4c(O)cccc4[C@@](C)(O)[C@H]3C[C@@H]12` [TET] gave an MIC ([1]; S. agaloctiae ATCC 13813, selected on rifaximin 4X MIC, Colony A) of 0.12 µg/mL (≈ 0.27 µM), an MIC ([1]; S. agaloctiae ATCC 13813, selected on rifaximin 4X MIC, Colony B) of 0.12 µg/mL (≈ 0.27 µM) and an MIC ([1]; S. agaloctiae ATCC 13813, selected on rifaximin 8X MIC, Colony A) of 0.12 µg/mL (≈ 0.27 µM). The MIC ([1]; S. agaloctiae ATCC 13813, selected on rifaximin 8X MIC, Colony B) was 0.25 µg/mL (≈ 0.563 µM), the MIC ([1]; S. agaloctiae ATCC 13813 Parent) was 0.12 µg/mL (≈ 0.27 µM) and the MIC ([1]; S. pneumoniae ATCC 49619, selected on rifaximin 4X MIC, Colony A) was 0.06 µg/mL (≈ 0.135 µM). The MIC ([1]; S. pneumoniae ATCC 49619, selected on rifaximin 4X MIC, Colony B) was 0.06 µg/mL (≈ 0.135 µM), the MIC ([1]; S. pneumoniae ATCC 49619, selected on rifaximin 8X MIC, Colony A) was 0.06 µg/mL (≈ 0.135 µM) and the MIC ([1]; S. pneumoniae ATCC 49619, selected on rifaximin 8X MIC, Colony B) was 0.06 µg/mL (≈ 0.135 µM). For the same molecule, the MIC ([1]; S. pneumoniae ATCC 49619 Parent) was 0.12 µg/mL (≈ 0.27 µM), the MIC ([1]; S. pyogenes ATCC 49399, selected on rifaximin 4X MIC, Colony A) was 0.12 µg/mL (≈ 0.27 µM) and the MIC ([1]; S. pyogenes ATCC 49399, selected on rifaximin 4X MIC, Colony B) was 0.12 µg/mL (≈ 0.27 µM). The MIC ([1]; S. pyogenes ATCC 49399, selected on rifaximin 8X MIC, Colony A) was 0.12 µg/mL (≈ 0.27 µM), the MIC ([1]; S. pyogenes ATCC 49399, selected on rifaximin 8X MIC, Colony B) was 0.12 µg/mL (≈ 0.27 µM) and the MIC ([1]; S. pyogenes ATCC 49399 Parent) was 0.12 µg/mL (≈ 0.27 µM). For the same molecule, the “MIC, CLSI QC range” value [2] was “(0.06-0.5) μg/mL”, the MIC ([3]; E. coli ATCC 25922, selected on rifaximin 4X MIC, Colony A) was 0.5 µg/mL and the MIC ([3]; E. coli ATCC 25922, selected on rifaximin 4X MIC, Colony B) was 1 µg/mL. It also gave an MIC ([3]; E. coli ATCC 25922, selected on rifaximin 8X MIC, Colony A) of 1 µg/mL, an MIC ([3]; E. coli ATCC 25922, selected on rifaximin 8X MIC, Colony B) of 1 µg/mL and an MIC ([3]; E. coli ATCC 25922 Parent (Table 52)) of 1 µg/mL. It also gave an MIC ([3]; E. coli ATCC 35218, selected on rifaximin 4X MIC, Colony A) of 2 µg/mL, an MIC ([3]; E. coli ATCC 35218, selected on rifaximin 4X MIC, Colony B) of 1 µg/mL and an MIC ([3]; E. coli ATCC 35218, selected on rifaximin 8X MIC, Colony A) of 0.5 µg/mL. For the same molecule, the MIC ([3]; E. coli ATCC 35218, selected on rifaximin 8X MIC, Colony B) was 2 µg/mL, the MIC ([3]; E. coli ATCC 35218 Parent (Table 52)) was 1 µg/mL and the MIC ([3]; E. coli MMX 1312, selected on ceftriaxone 4X MIC, Colony A) was >16 µg/mL. The MIC ([3]; E. coli MMX 1312, selected on ceftriaxone 4X MIC, Colony B) was >16 µg/mL, the MIC ([3]; E. coli MMX 1312, selected on ceftriaxone 4X MIC, Colony C) was >16 µg/mL and the MIC ([3]; E. coli MMX 1312, selected on ceftriaxone 8X MIC, Colony A) was >16 µg/mL. For the same molecule, the MIC ([3]; E. coli MMX 1312, selected on ceftriaxone 8X MIC, Colony B) was >16 µg/mL, the MIC ([3]; E. coli MMX 1312, selected on ceftriaxone 8X MIC, Colony C) was >16 µg/mL and the MIC ([3]; E. coli MMX 1312, selected on rifaximin 4X MIC, Colony A) was >16 µg/mL. The MIC ([3]; E. coli MMX 1312, selected on rifaximin 4X MIC, Colony B) was >16 µg/mL, the MIC ([3]; E. coli MMX 1312, selected on rifaximin 8X MIC, Colony A) was >16 µg/mL and the MIC ([3]; E. coli MMX 1312, selected on rifaximin 8X MIC, Colony B) was >16 µg/mL. For the same molecule, the MIC ([3]; E. coli MMX 1312 Parent) was >16 µg/mL, the MIC ([3]; E. coli MMX 1312 Parent (Table 49)) was >16 µg/mL and the MIC ([3]; E. coli MMX 1312 Parent (Table 52)) was >16 µg/mL. For the same molecule, the MIC ([3]; E. coli MMX 1312 mutant selected on meropenem 4X MIC, colony A) was >16 µg/mL, the MIC ([3]; E. coli MMX 1312 mutant selected on meropenem 4X MIC, colony B) was >16 µg/mL and the MIC ([3]; E. coli MMX 1312 mutant selected on meropenem 4X MIC, colony C) was 4 µg/mL. For the same molecule, the MIC ([3]; E. coli MMX 1312 mutant selected on meropenem 8X MIC, colony A) was >16 µg/mL, the MIC ([3]; E. coli MMX 1312 mutant selected on meropenem 8X MIC, colony B) was >16 µg/mL and the MIC ([3]; E. coli MMX 1312 mutant selected on meropenem 8X MIC, colony C) was >16 µg/mL. For the same molecule, the “MIC, CLSI QC range” value [4] was “(0.5-2) μg/mL”.
